Laboratory results published in ChEMBL document CHEMBL1955858, “Synthesis and biological evaluation of novel amprenavir-based P1-substituted bi-aryl derivatives as ultra-potent HIV-1 protease inhibitors” (Bioorg Med Chem Lett, 2012).

Tests used:
Protease = Protease (Human immunodeficiency virus 1, UniProt Q9YQ12); experiment: Inhibition of HIV1 protease using Arg-Glu(EDANS)-Ser-Gln-Asn-Tyr-Pro-Ile-Val-Gln-Lys(DABCYL)- Arg as substrate for 20 to 30 mins by FRET analysis
[1] = system: Human immunodeficiency virus 1; experiment: Antiviral activity against HIV1 3B infected in human C8166 cells assessed as inhibition of syncytia formation after 3 days; type: functional, organism-based; conditions: Human immunodeficiency virus 1, 3B, C8166, 72 h
[2] = Cytostatic activity against human C8166 cells by MTT assay; type: cell-based
[3] = Selectivity index, ratio of CC50 for human C8166 cells to EC50 for HIV1 3B; type: toxicity, cell-based; conditions: read-out: Ratio CC50/EC50
[4] = system: Human immunodeficiency virus 1; experiment: Ratio of amprenavir EC50 to compound EC50 for HIV1 3B; type: functional
[5] = biological target: Protease (Human immunodeficiency virus 1) (UniProt Q9YQ12); experiment: Ratio of amprenavir Ki to compound Ki for HIV1 protease
Chain of Protease (Human immunodeficiency virus 1) (Q9YQ12 as listed by the source): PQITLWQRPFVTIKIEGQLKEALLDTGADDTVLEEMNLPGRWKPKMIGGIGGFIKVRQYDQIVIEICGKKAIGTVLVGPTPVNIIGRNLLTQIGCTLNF

Chain of Protease (Q9YQ12 whole entry): as the sequence (Q9YQ12 as listed by the source) above

SMILES	Ki (Protease)	EC50 [1]	CC50 [2]	selectivity ratio [3]	Ratio EC50 [4]	Ratio Ki [5]
COc1ccc(S(=O)(=O)N(CC(C)C)C[C@@H](O)[C@H](Cc2ccc(-c3ccc(SC)cc3)cc2)NC(=O)O[C@H]2CCOC2)cc1	7.4 nM	6.89 nM	240000 nM	34800	–	–
COC(=O)c1cccc(-c2ccc(C[C@H](NC(=O)O[C@H]3CCOC3)[C@H](O)CN(CC(C)C)S(=O)(=O)c3ccc(OC)cc3)cc2)c1	1.6 nM	3.46 nM	190000 nM	54900	–	–
COc1ccc(S(=O)(=O)N(CC(C)C)C[C@@H](O)[C@H](Cc2ccc(-c3ccsc3)cc2)NC(=O)O[C@H]2CCOC2)cc1	3.5 nM	4.48 nM	160000 nM	35700	–	–
CC(C)CN(C[C@@H](O)[C@H](Cc1ccc(-c2ccncc2)cc1)NC(=O)O[C@H]1CCOC1)S(=O)(=O)c1ccc(N)cc1	0.086 nM	0.1 nM	260000 nM	2.6e+06	30	–
COc1ccc(S(=O)(=O)N(CC(C)C)C[C@@H](O)[C@H](Cc2ccc(-c3ccc(OC)c(C)c3)cc2)NC(=O)O[C@H]2CCOC2)cc1	1.8 nM	3.63 nM	170000 nM	46800	–	–
COc1ccc(S(=O)(=O)N(CC(C)C)C[C@@H](O)[C@H](Cc2ccc(-c3cccc(O)c3)cc2)NC(=O)O[C@H]2CCOC2)cc1	4.3 nM	4.3 nM	41000 nM	9540	–	–
COc1ccc(S(=O)(=O)N(CC(C)C)C[C@@H](O)[C@H](Cc2ccc(-c3ccc(C(C)=O)cc3)cc2)NC(=O)O[C@H]2CCOC2)cc1	5.8 nM	2.32 nM	210000 nM	90500	–	–
COc1ccc(S(=O)(=O)N(CC(C)C)C[C@@H](O)[C@H](Cc2ccc(-c3ccc(OC(F)(F)F)cc3)cc2)NC(=O)O[C@H]2CCOC2)cc1	5.2 nM	6.04 nM	170000 nM	28100	–	–
COc1ccc(S(=O)(=O)N(CC(C)C)C[C@@H](O)[C@H](Cc2ccc(-c3ccncc3)cc2)NC(=O)O[C@H]2CCOC2)cc1	3.8 nM	2.68 nM	260000 nM	97000	–	–
COc1ccc(S(=O)(=O)N(CC(C)C)C[C@@H](O)[C@H](Cc2ccc(-c3ccc(F)cc3)cc2)NC(=O)O[C@H]2CCOC2)cc1	5.8 nM	3.98 nM	140000 nM	35200	–	–
CC(C)CN(C[C@@H](O)[C@H](Cc1ccccc1)NC(=O)O[C@H]1CCOC1)S(=O)(=O)c1ccc(N)cc1 [AMPRENAVIR]	0.84 nM	2.93 nM	230000 nM	78500	–	–
COc1ccc(S(=O)(=O)N(CC(C)C)C[C@@H](O)[C@H](Cc2ccc(-c3ccc(C(=O)O)cc3)cc2)NC(=O)O[C@H]2CCOC2)cc1	1.9 nM	5.53 nM	140000 nM	25300	–	–
COc1ccc(S(=O)(=O)N(CC(C)C)C[C@@H](O)[C@H](Cc2ccc(-c3cccc(C#N)c3)cc2)NC(=O)O[C@H]2CCOC2)cc1	8.1 nM	9.2 nM	320000 nM	34800	–	–
COc1ccc(S(=O)(=O)N(CC(C)C)C[C@@H](O)[C@H](Cc2ccc(-c3cccnc3)cc2)NC(=O)O[C@H]2CCOC2)cc1	1.6 nM	3.08 nM	210000 nM	68200	–	–
CC(C)CN(C[C@@H](O)[C@H](Cc1ccc(-c2cccnc2)cc1)NC(=O)O[C@H]1CCOC1)S(=O)(=O)c1ccc(N)cc1	0.33 nM	0.1 nM	200000 nM	2e+06	30	2
COc1ccc(S(=O)(=O)N(CC(C)C)C[C@@H](O)[C@H](Cc2ccc(-c3ccc(Cl)cc3)cc2)NC(=O)O[C@H]2CCOC2)cc1	6.4 nM	4.29 nM	230000 nM	53600	–	–
CC(C)CN(C[C@@H](O)[C@H](Cc1ccc(-c2ccccc2)cc1)NC(=O)O[C@H]1CCOC1)S(=O)(=O)c1ccc(N)cc1	1.98 nM	2.25 nM	32000 nM	14200	–	–
